# US4282215A, “Analgesic mixture of nalbuphine and acetylsalicylic acid, derivative or salt thereof” (E. I. Du Pont de Nemours and Company, priority 1980, dated 1981)
# Structures can show the parent of a compound that is named as a salt.
# What was measured:
# [1] = system: phenyl-p-benzoquinone induced writhing in mice; assay: mouse antiphenylquinone writhing test at 20 minutes, oral nalbuphine.HCl / aspirin suspension (Method 1); type: in vivo, mouse (Male CF1)
# Protocol: (§1) Male CF1 mice obtained from Charles River Breeding Laboratories, fasted for 16-22 hours, and weighing 18-22 g at the time of testing are used throughout. All mice are dosed sequentially by the oral route with suspensions of acetylsalicylic acid and/or of nalbuphine solutions (Method 1) or of calcium acetylsalicylate (calcium aspirin) and/or of nalbuphine solutions (Method 2). In each case the aspirin component is calculated as the equivalent free acid content, and nalbuphine is calculated as the hydrochloride salt. A dosing volume of 10 ml/kg is used for each sequential solution or suspension. All doses are coded and the test is performed under a code not known to the observer.
# A stock suspension of aspirin is prepared by mixing 2.016 gm aspirin with 40 ml of an aqueous vehicle containing 2% by volume of Tween 80®, a pharmacological dispersant manufactured by Fisher Scientific Company and containing 100% polysorbate 80, and 1% by weight of Methocel® MC powder, a pharmacological suspending agent manufactured by DOW Chemical Company and containing 100% methylcellulose, in distilled water. The mixture is sonicated at 150 watts for 10-15 seconds with an ultrasound system, then shaken for 1 hour at 280 oscillations/minute with 15-20 gm of glass beads. The resultant suspension contains 50.4 mg/ml of aspirin; all dosing suspensions are prepared by dilution of the stock suspension with the Methocel®/Tween 80® vehicle; the vehicle control is Methocel®/Tween 80®. All suspensions are used within two hours of preparation, then discarded.
# Stock solutions of nalbuphine.HCl are prepared by dissolving dry nalbuphine hydrochloride powder with distilled water. All dosing solutions are prepared by dilution of the stock solutions with distilled water; the vehicle control is distilled water.
# (§2) A standard procedure for detecting and comparing the analgetic activity of different classes of analgesic drugs for which there is a good correlation with human analgetic activity is the prevention of phenyl-p-benzoquinone induced writhing in mice [H. Blumberg et al., Proc. Soc. Exp. Biol. Med., 118, 763-766 (1965)].
# (§3) Mice, intubated with various doses of nalbuphine.HCl, aspirin suspensions (Method 1), calcium aspirin solution (Method 2), or immediately sequential doses of nalbuphine.HCl and of the aspirin preparations as defined further, or of the respective vehicles, are injected intraperitoneally with a standard challenge dose of phenyl-p-benzoquinone 5 min. prior to a designated observation period. The phenyl-p-benzoquinone is prepared as a 0.1 mg/ml solution in 5% by volume of ethanol in water; the writhing dose is 1.25 mg/kg injected at a volume of 0.25 ml/20 g. For scoring purposes a "writhe" is indicated by whole body stretching or contraction of the abdomen during a 10 min. observation period beginning 5 min. after receiving the phenyl-p-benzoquinone dose. Each mouse is used only once, then discarded.
# (§4) All ED50 values and their 95% confidence limits are determined numerically by the methods of Thompson [W. F. Thompson, Bacteriological Rev., 11, 115-145 (1947)], Litchfield and Wilcoxon [J. T. Litchfield, Jr. and F. Wilcoxon, J. Pharm. Exp. Ther., 96, 99-113 (1949)], or Finney [D. J. Finney, "Probit Analysis," third edition, Cambridge University Press, Cambridge, England, (1971)].
# Rev., 9, 237-242 (1957)] in FIG. 1. […] In the isobolographic figures, the analgetic effects of nalbuphine alone are presented on the Y axis and of aspirin alone (or calcium aspirin, expressed as aspirin equivalent dosages) on the X axis. The dotted lines radiating from the origin represent the fixed dosage ratios of nalbuphine.HCl:aspirin in the ranges of 1:2.44 to 1:60.9 and 1:1.76 to 1:61.7 for FIGS. 1 and 2, respectively. […] The arrows extending above and below each ED50 point represent the 95% confidence limits of the ED50's. […]
# [2] = system: phenyl-p-benzoquinone induced writhing in mice; assay: mouse antiphenylquinone writhing test at 40 minutes, oral nalbuphine.HCl / calcium aspirin (Method 2); type: in vivo, mouse (Male CF1)
# Protocol: as §1
# A stock solution of calcium aspirin is prepared by mixing 4.032 gm of aspirin and 1.120 gm of precipitated calcium carbonate with 50 ml of distilled water at 40°-50° C. until the solids are completely dissolved, then diluting to 60 ml with distilled water at ambient temperature to obtain a solution containing 67.2 mg/ml of aspirin equivalent. All dosing solutions are prepared by dilution of the stock solution with distilled water; the vehicle control is distilled water. All solutions are used within two hours of preparation, then discarded.
# Stock solutions of nalbuphine.HCl are prepared as described for Method 1.
# as §2, §3, §4
# Rev., 9, 237-242 (1957)] in FIG. 1. […] In the isobolographic figures, the analgetic effects of nalbuphine alone are presented on the Y axis and of aspirin alone (or calcium aspirin, expressed as aspirin equivalent dosages) on the X axis. The dotted lines radiating from the origin represent the fixed dosage ratios of nalbuphine.HCl:aspirin in the ranges of 1:2.44 to 1:60.9 and 1:1.76 to 1:61.7 for FIGS. 1 and 2, respectively. […] The arrows extending above and below each ED50 point represent the 95% confidence limits of the ED50's.
# The solid line connecting the ED50 dosages of nalbuphine (alone) and aspirin (alone) represents the "ED50 addition line," which indicates the expected location of the ED50's for nalbuphine and aspirin combinations if simple additivity were to describe their combined effects. The 95% confidence range for the ED50 addition line is shown by the area between the broken lines above and below the ED50 addition line. […]
structure (smiles),measurement,setting,value
"CC(=O)Oc1ccccc1C(=O)O [Aspirin, acetylsalicylic acid]","ED50 at 20 MIN., Aspirin (component)",[1]; N = 24 mice/dose,206 mg/kg
same,% MICE BLOCKED,"[1]; nalbuphine.HCl 0, aspirin 63 mg/kg",8.3%
same,% MICE BLOCKED,"[1]; nalbuphine.HCl 0, aspirin 126 mg/kg",37.5%
same,% MICE BLOCKED,"[1]; nalbuphine.HCl 0, aspirin 252 mg/kg",58.3%
same,% MICE BLOCKED,"[1]; nalbuphine.HCl 0, aspirin 504 mg/kg",79.2%
"Oc1ccc2c3c1O[C@H]1[C@@H](O)CC[C@@]4(O)[C@@H](C2)N(CC2CCC2)CC[C@]314 [Nalbuphine . HCl, (-)17-(cyclobutylmethyl)-4,5α-epoxymorphinan-3,6α,14-triol]","ED50 at 20 MIN., Nalbuphine . HCl (component)",[1]; N = 24 mice/dose,26.1 mg/kg
same,% MICE BLOCKED,"[1]; nalbuphine.HCl 5.18 mg/kg, aspirin 0",0%
same,% MICE BLOCKED,"[1]; nalbuphine.HCl 10.4 mg/kg, aspirin 0",16.7%
same,% MICE BLOCKED,"[1]; nalbuphine.HCl 20.7 mg/kg, aspirin 0",50.0%
same,% MICE BLOCKED,"[1]; nalbuphine.HCl 41.4 mg/kg, aspirin 0",62.5%
same,"ED50 at 40 MIN., Nalbuphine . HCl (component)",[2]; N = 54 mice/dose,42.6 mg/kg
same,% MICE BLOCKED,[2]; nalbuphine.HCl 5.45 mg/kg alone,13.0%
same,% MICE BLOCKED,"[2]; nalbuphine.HCl 10.9 mg/kg, aspirin 0",16.7%
same,% MICE BLOCKED,"[2]; nalbuphine.HCl 21.8 mg/kg, aspirin 0",27.8%
same,% MICE BLOCKED,"[2]; nalbuphine.HCl 43.6 mg/kg, aspirin 0",50.0%
same,% MICE BLOCKED,"[2]; nalbuphine.HCl 87.2 mg/kg, aspirin 0",74.1%
"CC(=O)Oc1ccccc1C(=O)O [calcium aspirin, calcium acetylsalicylate]","ED50 at 40 MIN., Aspirin (component; calcium aspirin as equivalent free aspirin)",[2]; N = 54 mice/dose,171 mg/kg
same,% MICE BLOCKED,"[2]; nalbuphine.HCl 0, aspirin equiv. 48 mg/kg",7.4%
same,% MICE BLOCKED,"[2]; nalbuphine.HCl 0, aspirin equiv. 96 mg/kg",13.0%
same,% MICE BLOCKED,"[2]; nalbuphine.HCl 0, aspirin equiv. 192 mg/kg",63.0%
same,% MICE BLOCKED,"[2]; nalbuphine.HCl 0, aspirin equiv. 384 mg/kg",87.0%
